Ends that are not written are not given here.
Columns and labels:
[1] = test system: HeLa cells; experiment: Intracellular calcium level, Fluo-4, confocal microscope; type: cell-based, human; settings: Fluo-4, 20 μM (FIG. 4)
Procedure: In order to examine the mechanism in which the peptide eMTD (SEQ ID NO: 1) induces cell death in cancer cell lines, a change in intracellular calcium level, which is known as an important factor for cell death, was observed using the calcium indicator Fluo-4 under a confocal microscope (Leica).
In brief, HeLa cells were grown to about 70% confluency in a Lab-Tek chamber glass a day before the experiment. Immediately before the experiment, of the calcium indicator Fluo-4 was diluted to a concentration of 5 in HBSS. HeLa cells were incubated with the dilution for 10 min in an incubator and then treated with the peptide eMTDΔ4 (SEQ ID NO: 2).

[2] = test system: mitochondria isolated from livers of BalB/C mice; experiment: Mitochondrial swelling, absorbance at 540 nm / TEM; type: biochemical; settings: for Mitochondrial swelling, relative absorbance at 540 nm: peptides 25 μM, Ca2+ 200 μM, CsA 20 μM
Procedure: First, livers excised from 6-week-old BalB/C mice were immersed in buffer (250 mM mannitol, […], 5 mM HEPES, pH 7.4, 0.1 mM PMSF and 4 rotenone) and completely homogenized using a Teflon Potter-Elvehjem grinder (Sigma). The ground liver was centrifuged at 1000×g for 10 min at 4° C. and the supernatants were centrifuged at 10,000×g for 10 min at 4° C. The pellets thus obtained were suspended in a regeneration buffer (250 mM sucrose, 10 mM HEPES, pH 7.4, 5 mM sodium succinate, 2 mM potassium phosphate, 0.1 mM PMSF, 25 μM EGTA, and 4 rotenone).
The mitochondria thus obtained were treated with 25 μM of eMTD (SEQ ID NO: 1) or eMTDΔ4 (SEQ ID NO: 2), followed by reading absorbance at 540 nm to determine mitochondrial swelling.

## KLNFRQKLLNLISKLF [eMTDΔ4]
[1]
  change in intracellular calcium level: calcium influx into the cytosols thereof within less than one min
[2]; 25 μM, absorbance 540 nm and TEM, FIGS. 6A and 6B
  mitochondrial swelling (in words): induce mitochondrial swelling
[2]; Minute 0
  Mitochondrial swelling, relative absorbance at 540 nm: 100%
[2]; Minute 10
  Mitochondrial swelling, relative absorbance at 540 nm: 79%
[2]; Minute 20
  Mitochondrial swelling, relative absorbance at 540 nm: 74%
[2]; Minute 30
  Mitochondrial swelling, relative absorbance at 540 nm: 70%
[2]; Minute 40
  Mitochondrial swelling, relative absorbance at 540 nm: 68%
[2]; Minute 50
  Mitochondrial swelling, relative absorbance at 540 nm: 66%
[2]; Minute 60
  Mitochondrial swelling, relative absorbance at 540 nm: 65%
